Here are results for 10 molecules from patent publication US20230416258A1, “BENZ[…], AND PREPARATION METHOD THEREFOR AND USE THEREOF” (CHINA PHARMACEUTICAL UNIVERSITY, priority 2020, published 2023).

SMILES strings stand for the structures. Read-outs that look alike come from different tables or passages of the source.

Series [1] deals with hCMEC/D3 cells. Description: Rate of drug passing through in vitro blood-brain barrier (Transwell). Conditions: hCMEC/D3 monolayer, compound 0.1 mg/mL. Format: in vitro ADME. How it is done: A Transwell device (pore size: 5.0 μm) was placed in a 24-well cell culture well; then hCMEC/D3 cells at 1×10^5 cells/mL were transferred to the upper microwells of Transwell at 150 μL/well, and cell culture medium was added to the lower microwells. After the bottom was covered by a single layer of the cells, the medium in the wells was replaced with EBM-2 complete medium containing 1% FBS, and the cells were cultured in a CO2 incubator for 10 days until a fully dense single layer of the cells was formed. When a fully dense single layer of the cells was formed, the compound at 0.1 mg/mL was added to the lower medium, and after 5 min, the concentration of the compound in the upper medium was measured to calculate the permeability:
Pcompound%=Cupper compound/Clower compound×100%

Series [2] deals with SD rats. Description: Induction of anesthesia in rats by continuous infusion of drug for 20 min. Type of series: in vivo. The settings on record: initial dose 20 mg/kg bolus, maintenance dose 0.2 (mg/kg)/min for 20 min, after infusion completed. How it is done:
SD rats (male, 200-280 g) were randomly grouped and subjected to administration of an initial dose by rapid bolus via the tail vein, followed by a continuous infusion with a maintenance dose for 20 min.
After the infusion was completed, the duration of the righting reflex and the time from wake-up to recovery in rats were recorded.

Series [3] deals with SD rats. Description: Test for drug-induced disappearance of righting reflex in rats. Type of series: in vivo. The settings on record: single rapid bolus via tail vein. From the text: In anesthetic drug experiments, latency generally refers to the time from the start of administration to the loss of consciousness of the subject. The shorter latency is preferred, indicating a rapid onset of action after administration. The duration of anesthesia generally refers to the duration of time from the loss of consciousness to the restoration of consciousness of the subject. The duration of the drug will vary from animal model to animal species. Too long anesthesia may produce adverse cardiovascular and respiratory responses, such as adverse neurological effects to the subject, including sleepiness and dizziness; meanwhile, too short duration of anesthesia may affect the anesthesia effect, causing problems such as increase of anesthesia dosage during the operation.
SD rats (male, 200-280 g) were randomly grouped and subjected to a single administration by rapid bolus via the tail vein. The latency and duration of righting reflex in the rats were recorded.

For series [4], the system named is GABA-activated Cl− current (GABAA receptor) in HEK 293T cells. In words: Effect of drugs on GABA-activated current in cells by cell patch clamp. Format: cell-based. The settings on record: for Enhancement percentage Emax for 2 μM GABA current (within 3-30 μM): corresponding concentration 20 μM. How it is done:
Test compounds were dissolved at various concentrations in an extracellular buffer (140 mM NaCl, 4.7 mM KCl, 10 mM HEPES, 2 mM CaCl2), 10 mM glucose, 1 mM MgCl2, pH 7.4). HEK 293T cells were seeded on glass coverslips and cultured in DMEM media at 37° C. with 5% CO2 for 24 h. GABA Cl^− current was subjected to whole cell recording using an HEKA EPC 10USB patch clamp amplifier. 2 μM GABA was used for exciting Cl^− current, with the membrane potential clamped at −60 mV. The cells were treated with the test compound and 2 μM GABA simultaneously, and the induction effect on and Emax of Cl^− current in the same cell were recorded.
Maximum enhancement percentage Emax for 2 μM GABA current and corresponding concentration (μM): 100% for normal humans. The greater the percentage, the lower the corresponding concentration, and the greater the depth of anesthesia.

Series [5] deals with KM mice. In words: Test for drug-induced disappearance of righting reflex in mice. Type of series: in vivo. The settings on record: single rapid bolus via tail vein. A digest of the protocol:
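Latency to, and duration of, righting reflex loss were recorded after one fast tail-vein bolus. Animals: randomized female KM mice weighing 18–25 g.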

Setting [6] is: 2 μM GABA, −60 mV, read-out: Positive enhancement EC50 (μM) for 2 μM GABA-induced current.
[7] abbreviates: read-out: Positive enhancement EC50 (μM) for 2 μM GABA-induced current, −60 mV.

Usually EC50 stands for the midpoint of the concentration-response curve. Consider `COC(=O)CC[C@@H]1N=C(c2ccccc2F)c2cc(Br)ccc2-n2c1n[nH]c2=S` [Tautomer of compound 4, methyl (S)-3-(8-bromo-6-(2-fluorophenyl)-1-thio-2,4-dihydro-1H-benzo[f][1,2,4]triazolo[4,3-a][1,4]diazepin-4-yl) propionate], for which the “In vitro blood-brain barrier, compound permeability at 5 min” value (“In vitro blood-brain barrier” below) in series [1] is on record as 75.8%. In series [2], the Duration of anesthesia was determined as 4.84 min and the “Time from wake-up to recovery” value is 10.3 min. For the same molecule, in series [3], the Duration worked out at 15.4 min and the Latency came to 0.48 min. In series [4] (setting [6]), the EC50 is 0.65 µM. The “Enhancement percentage Emax for 2 μM GABA current (within 3-30 μM)” value (“Enhancement percentage Emax” for short) in series [4] (−60 mV) is 238% (20 μM). For the same molecule, in series [5] (30 mg/kg), the Duration amounted to 2.95 min and the Latency was 0.38 min.

For `COC(=O)CC[C@@H]1N=C(c2ccccc2Cl)c2cc([N+](=O)[O-])ccc2-n2c(SC)nnc21` [Compound 25, methyl (S)-3-(8-nitro-6-(2-chlorophenyl)-1-(methylthio)-4H-benzo[f][1,2,4]triazolo[4,3-a][1,4]diazepin-4-yl)propionate], the “In vitro blood-brain barrier” value in series [1] was 81.5%. Besides, in series [2], the Duration of anesthesia is recorded as 7.35 min and the “Time from wake-up to recovery” value amounted to 10.2 min. The Latency in series [3] stood at 0.45 min. Moreover, in series [4] (setting [7]), the EC50 was 0.64 µM. Besides, the “Enhancement percentage Emax” value in series [4] (−60 mV) was 242% (20 μM). In series [5] (60 mg/kg), this molecule registered a Duration of 5.89 min and a Latency of 0.31 min.

In the case of `COC(=O)CC[C@@H]1N=C(c2ccccc2Cl)c2cc(Br)ccc2-n2c(SC)nnc21` [Compound 24, methyl (S)-3-(8-bromo-6-(2-chlorophenyl)-1-(methylthio)-4H-benzo[f][1,2,4]triazolo[4,3-a][1,4]diazepin-4-yl)propionate], the “In vitro blood-brain barrier” value in series [1] is 73.4%. In series [2], the Duration of anesthesia is recorded as 15.6 min and the “Time from wake-up to recovery” value is 22.3 min. The same molecule yielded a Latency in series [3] of 0.28 min. In addition, the concentration giving a half-maximal response (EC50) in series [4] (setting [7]) came to 0.48 µM. Besides, in series [4] (−60 mV), the “Enhancement percentage Emax” value is 282% (20 μM). In series [5] (60 mg/kg), this molecule yielded a Duration of 6.83 min and a Latency of 0.24 min.

For `CCSc1nnc2n1-c1ccc([N+](=O)[O-])cc1C(c1ccccc1F)=N[C@H]2CCC(=O)OC` [Compound 13, methyl (S)-3-(8-nitro-6-(2-fluorophenyl)-1-(ethylthio)-4H-benzo[f][1,2,4]triazolo[4,3-a][1,4]diazepin-4-yl)propionate], the “In vitro blood-brain barrier” value in series [1] worked out at 81.6%. In addition, in series [2], the Duration of anesthesia amounted to 5.22 min and the “Time from wake-up to recovery” value came out at 11.4 min. In addition, the Latency in series [3] amounted to 0.58 min. In addition, the half-maximal effective concentration (EC50) in series [4] (setting [7]) turned out to be 0.58 µM. Moreover, the “Enhancement percentage Emax” value in series [4] (−60 mV) is 246% (20 μM). In series [5] (30 mg/kg), this molecule registered a Duration of 2.87 min and a Latency of 0.23 min.

Turning to `COC(=O)CC[C@@H]1N=C(c2ccccc2Cl)c2cc(Cl)ccc2-n2c(SC)nnc21` [Compound 23, methyl (S)-3-(8-chloro-6-(2-chlorophenyl)-1-(methylthio)-4H-benzo[f][1,2,4]triazolo[4,3-a][1,4]diazepin-4-yl)propionate], in series [1], the “In vitro blood-brain barrier” value is on record as 65.3%. In addition, in series [2], the Duration of anesthesia is on record as 7.22 min and the “Time from wake-up to recovery” value is listed as 13.2 min. For the same molecule, the Latency in series [3] is recorded as 0.36 min. Moreover, the EC50 in series [4] (setting [7]) was 0.52 µM. Besides, the “Enhancement percentage Emax” value in series [4] (−60 mV) is recorded as 278% (20 μM). For the same molecule, in series [5] (60 mg/kg), the Duration is listed as 8.46 min and the Latency is on record as 0.25 min. In series [5] (100 mg/kg), this molecule displayed a Duration of 14.6 min and a Latency of 0.16 min.

As to `COC(=O)CC[C@@H]1N=C(c2ccccc2Cl)c2cc(Cl)ccc2-n2c(SCC(=O)N3CCN(C)CC3)nnc21` [Compound 129, methyl (S)-3-(8-chloro-6-(2-chlorophenyl)-1-((2-(4-methylpiperazin-1-yl)2-oxyethyl)thio)-4H-benzo[f][1,2,4]triazolo[4,3-a][1,4]diazepin-4-yl)propionate], in series [1], the “In vitro blood-brain barrier” value worked out at 75.9%. In addition, in series [2], the Duration of anesthesia was 10.22 min and the “Time from wake-up to recovery” value is on record as 17.7 min. In series [3], this molecule had a Duration of 17.28 min and a Latency of 0.37 min. Moreover, the EC50 in series [4] (setting [6]) is 0.42 µM. In series [4] (−60 mV), the “Enhancement percentage Emax” value is listed as 257% (20 μM). In series [5] (30 mg/kg), the Duration came out at 13.27 min and the Latency is on record as 0.56 min.

Turning to `COC(=O)CC[C@@H]1N=C(c2ccccc2F)c2cc(Cl)ccc2-n2c(S)nnc21` [Compound 1, methyl (S)-3-(8-chloro-6-(2-fluorophenyl)-1-mercapto-4H-benzo[f][1,2,4]triazolo[4,3-a][1,4]diazepin-4-yl)propionate], the “In vitro blood-brain barrier” value in series [1] turned out to be 72.2%. In series [2], the Duration of anesthesia came out at 2.82 min and the “Time from wake-up to recovery” value was determined as 11.2 min. The Latency in series [3] came to 0.25 min. The EC50 in series [4] (setting [7]) came out at 0.85 µM. Moreover, the “Enhancement percentage Emax” value in series [4] (−60 mV) is listed as 216% (20 μM). In series [5] (30 mg/kg), this molecule came in with a Duration of 3.51 min and a Latency of 0.26 min.

For `CCCSc1nnc2n1-c1ccc(Cl)cc1C(c1ccccc1Cl)=N[C@H]2CCC(=O)OC` [Compound 29, methyl (S)-3-(8-chloro-6-(2-chlorophenyl)-1-(propylthio)-4H-benzo[f][1,2,4]triazolo[4,3-a][1,4]diazepin-4-yl)propionate], the “In vitro blood-brain barrier” value in series [1] was determined as 77.6%. Moreover, in series [2], the Duration of anesthesia turned out to be 9.18 min and the “Time from wake-up to recovery” value is given as 13.6 min. This molecule registered a Latency in series [3] of 0.86 min. The EC50 in series [4] (setting [7]) amounted to 0.74 µM. The “Enhancement percentage Emax” value in series [4] (−60 mV) is given as 251% (20 μM). Moreover, in series [5] (30 mg/kg), the Duration was determined as 9.25 min and the Latency worked out at 0.57 min.

Turning to `COC(=O)CC[C@@H]1N=C(c2ccccc2Cl)c2cc([N+](=O)[O-])ccc2-n2c(SCCO)nnc21` [Compound 34, methyl (S)-3-(8-nitro-6-(2-chlorophenyl)-1-((2-hydroxyethyl)thio)-4H-benzo[f][1,2,4]triazolo[4,3-a][1,4]diazepin-4-yl)propionate], the “In vitro blood-brain barrier” value in series [1] is recorded as 85.6%. For the same molecule, in series [2], the Duration of anesthesia stood at 48.2 min and the “Time from wake-up to recovery” value was found to be 35.6 min. In series [3], this molecule registered a Latency of 0.22 min. The EC50 in series [4] (setting [7]) amounted to 0.38 µM. In addition, the “Enhancement percentage Emax” value in series [4] (−60 mV) is listed as 302% (20 μM). Besides, in series [5] (30 mg/kg), the Duration worked out at 21.9 min and the Latency was 0.3 min.

Take `COC(=O)CC[C@@H]1N=C(c2ccccc2F)c2cc(Cl)ccc2-n2c(SCCN3CCOCC3)nnc21` [Compound 51, methyl (S)-3-(8-chloro-6-(2-fluorophenyl)-1-((2-morpholinoethyl)thio)-4H-benzo[f][1,2,4]triazolo[4,3-a][1,4]diazepin-4-yl)propionate]: in series [1], the “In vitro blood-brain barrier” value turned out to be 78.6%. The molecule also had a Duration of anesthesia in series [2] of 8.36 min. The “Time from wake-up to recovery” value in series [2] is listed as 22.6 min. The Latency in series [3] worked out at 0.27 min; in series [5] (60 mg/kg) it was 0.25 min; in series [5] (100 mg/kg) it was 0.16 min. The EC50 in series [4] (setting [7]) amounted to 0.41 µM. The “Enhancement percentage Emax” value in series [4] (−60 mV) is recorded as 304% (20 μM). Further, the Duration in series [5] (60 mg/kg) is 8.46 min; in series [5] (100 mg/kg), 14.6 min.
